Consider nine molecules from patent US20150197497A1, “SELECTIVE INHIBITORS OF HISTONE DEACETYLASE ISOFORM 6 AND METHODS THEREOF” (DANA-FARBER CANCER INSTITUTE, INC., priority 2011, published 2015).

One test addresses T1, HDAC1 (Homo sapiens, UniProt Q13547).
T1 construct: Recombinant, full-length HDAC protein (BPS Biosciences) was incubated with fluorophore conjugated substrate; purchased BPS Biosciences
Kind of test: In vitro HDAC enzyme inhibition assay, HDAC1. The format is biochemical. To be noted: for HDAC1/HDAC6 in vitro selectivity: ratio of IC50 for HDAC1 relative to that of HDAC6; for IC50: recombinant full-length HDAC1, substrate MAZ1600 21 μM. Here is the method:
(§1) In vitro Histone Deacetylase enzyme assays were performed using Class I (isoforms: HDAC1, HDAC2, HDAC3 and HDAC8), class IIa (isoforms: HDAC4, HDAC5, HDAC7 and HDAC9) and class IIb (isoform HDAC6).
(§2) HDAC activities were determined in vitro with an optimized homogenous assay performed in a 384-well plate. Recombinant, full-length HDAC protein (BPS Biosciences) was incubated with fluorophore conjugated substrate, MAZ1600 and MAZ1675, at Km=[S]. […] Reactions were performed in assay buffer (50 mM HEPES, 100 mM KCl, 0.001% Tween-20, 0.05% BSA, 200 μM tris(2-carboxyethyl)phosphine (TCEP), pH 7.4) and followed for fluorogenic release of 7-amino-4-methylcoumarin from substrate upon deacetylase and trypsin enzymatic activity. Fluorescence measurements were obtained every five minutes using a multilabel plate reader and plate-stacker (Envision; Perkin-Elmer). Each plate was analyzed by plate repeat, and the first derivative within the linear range was imported into analytical software (Spotfire DecisionSite and GraphPad Prism). Replicate experimental data from incubations with inhibitor were normalized to controls.

Another test deals with T2, HDAC4 (Homo sapiens, UniProt P56524).
T2 construct: Recombinant, full-length HDAC protein (BPS Biosciences) was incubated with fluorophore conjugated substrate; purchased BPS Biosciences
T2 sequence (P56524 whole entry): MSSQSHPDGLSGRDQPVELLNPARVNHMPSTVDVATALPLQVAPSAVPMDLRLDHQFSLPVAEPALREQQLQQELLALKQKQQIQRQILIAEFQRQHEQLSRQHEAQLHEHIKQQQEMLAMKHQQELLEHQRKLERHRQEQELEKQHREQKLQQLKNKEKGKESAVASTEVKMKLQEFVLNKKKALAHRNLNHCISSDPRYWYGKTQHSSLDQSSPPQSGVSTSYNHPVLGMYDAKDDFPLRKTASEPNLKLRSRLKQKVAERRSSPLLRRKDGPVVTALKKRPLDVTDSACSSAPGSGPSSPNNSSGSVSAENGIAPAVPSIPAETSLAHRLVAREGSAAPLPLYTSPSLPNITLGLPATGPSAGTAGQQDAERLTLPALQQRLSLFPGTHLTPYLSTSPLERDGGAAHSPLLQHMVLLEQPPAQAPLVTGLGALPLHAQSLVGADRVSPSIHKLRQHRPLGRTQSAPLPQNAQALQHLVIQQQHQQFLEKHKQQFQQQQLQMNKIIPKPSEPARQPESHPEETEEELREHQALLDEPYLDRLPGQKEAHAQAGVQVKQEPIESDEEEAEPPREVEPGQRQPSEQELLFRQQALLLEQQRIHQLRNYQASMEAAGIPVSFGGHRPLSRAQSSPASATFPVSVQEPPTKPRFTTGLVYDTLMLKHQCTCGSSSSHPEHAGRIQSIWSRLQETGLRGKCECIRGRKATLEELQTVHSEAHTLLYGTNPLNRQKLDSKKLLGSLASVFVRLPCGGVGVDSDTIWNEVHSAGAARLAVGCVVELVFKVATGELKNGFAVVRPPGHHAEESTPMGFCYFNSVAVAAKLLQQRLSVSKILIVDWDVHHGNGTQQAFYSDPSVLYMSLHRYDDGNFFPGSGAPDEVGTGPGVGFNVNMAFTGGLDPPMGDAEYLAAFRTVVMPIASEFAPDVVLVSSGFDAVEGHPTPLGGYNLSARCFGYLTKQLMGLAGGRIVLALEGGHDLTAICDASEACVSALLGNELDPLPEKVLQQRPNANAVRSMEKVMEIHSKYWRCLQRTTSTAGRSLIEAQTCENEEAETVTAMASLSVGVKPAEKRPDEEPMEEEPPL
Kind of test: In vitro HDAC enzyme inhibition assay, HDAC4. The format is biochemical. The conditions noted are these: for HDAC4/HDAC6 in vitro selectivity: ratio of IC50 for HDAC4 relative to that of HDAC6; for IC50: recombinant full-length HDAC4, substrate MAZ1675 10 μM; for selectivity toward HDAC6 compared to HDAC4 (in words): tested in vitro. The protocol:
as §1, §2

The next test has as its target T3, HDAC6 (Homo sapiens, UniProt Q9UBN7).
T3 construct: Recombinant, full-length HDAC protein (BPS Biosciences) was incubated with fluorophore conjugated substrate; purchased BPS Biosciences
T3 sequence (Q9UBN7 1-1215): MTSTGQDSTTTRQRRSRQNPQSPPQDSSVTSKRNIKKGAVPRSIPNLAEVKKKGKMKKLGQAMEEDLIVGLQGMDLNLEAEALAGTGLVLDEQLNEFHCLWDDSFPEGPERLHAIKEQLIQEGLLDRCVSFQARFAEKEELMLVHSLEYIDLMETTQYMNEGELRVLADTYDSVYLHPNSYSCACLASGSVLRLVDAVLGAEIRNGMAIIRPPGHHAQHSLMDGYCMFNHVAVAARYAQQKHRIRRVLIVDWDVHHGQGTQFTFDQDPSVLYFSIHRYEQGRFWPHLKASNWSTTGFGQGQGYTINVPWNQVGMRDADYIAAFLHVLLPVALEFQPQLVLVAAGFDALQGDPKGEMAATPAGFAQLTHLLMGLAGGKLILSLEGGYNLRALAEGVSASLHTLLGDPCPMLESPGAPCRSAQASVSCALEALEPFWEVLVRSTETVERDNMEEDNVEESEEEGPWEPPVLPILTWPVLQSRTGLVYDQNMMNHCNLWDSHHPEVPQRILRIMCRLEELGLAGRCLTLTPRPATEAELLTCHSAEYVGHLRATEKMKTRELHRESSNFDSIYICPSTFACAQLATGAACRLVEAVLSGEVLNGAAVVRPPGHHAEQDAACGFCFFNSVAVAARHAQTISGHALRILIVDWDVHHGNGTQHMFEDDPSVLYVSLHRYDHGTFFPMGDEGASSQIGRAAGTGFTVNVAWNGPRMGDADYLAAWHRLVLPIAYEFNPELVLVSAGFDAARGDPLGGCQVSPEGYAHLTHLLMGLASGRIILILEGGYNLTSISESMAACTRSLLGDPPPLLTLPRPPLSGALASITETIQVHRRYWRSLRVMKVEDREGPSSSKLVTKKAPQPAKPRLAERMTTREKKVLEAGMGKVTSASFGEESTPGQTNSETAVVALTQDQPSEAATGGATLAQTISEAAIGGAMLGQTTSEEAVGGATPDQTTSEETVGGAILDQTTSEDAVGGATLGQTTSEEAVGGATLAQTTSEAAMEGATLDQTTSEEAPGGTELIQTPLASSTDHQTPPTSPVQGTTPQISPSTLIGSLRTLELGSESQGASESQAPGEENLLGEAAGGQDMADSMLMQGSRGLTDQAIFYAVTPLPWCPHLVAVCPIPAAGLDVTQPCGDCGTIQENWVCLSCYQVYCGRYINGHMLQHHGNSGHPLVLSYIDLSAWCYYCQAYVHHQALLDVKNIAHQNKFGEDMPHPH
Kind of test: In vitro HDAC enzyme inhibition assay, HDAC6. To be noted: recombinant full-length HDAC6, substrate MAZ1600 9 μM. The class given is biochemical. Here is the method: as §1, §2

For another test, the system named is acetylated histones. Kind of test: High-content image analysis of induction of acetylated histones in A549 cells. The conditions noted are these: for EC50: Homo sapiens, A549, 8 h, read-out: EC50 for half-maximal induction of acetylated histones (AcHistone).

Molecules are shown by their SMILES.

T1 sequence (Q13547 whole entry): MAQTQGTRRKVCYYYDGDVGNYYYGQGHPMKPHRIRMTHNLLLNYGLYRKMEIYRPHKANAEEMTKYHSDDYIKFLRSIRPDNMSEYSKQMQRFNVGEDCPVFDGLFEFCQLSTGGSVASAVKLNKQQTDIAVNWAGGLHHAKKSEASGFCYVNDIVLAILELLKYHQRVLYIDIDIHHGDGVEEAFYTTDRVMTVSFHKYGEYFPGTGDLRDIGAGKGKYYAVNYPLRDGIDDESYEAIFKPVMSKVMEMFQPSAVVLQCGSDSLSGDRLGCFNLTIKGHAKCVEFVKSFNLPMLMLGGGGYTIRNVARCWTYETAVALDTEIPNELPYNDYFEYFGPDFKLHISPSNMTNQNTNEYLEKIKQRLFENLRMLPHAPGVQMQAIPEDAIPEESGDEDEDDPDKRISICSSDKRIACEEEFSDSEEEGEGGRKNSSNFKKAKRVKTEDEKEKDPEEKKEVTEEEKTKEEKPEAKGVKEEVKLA
Description for acetylated histones: Cells were treated with each test HDACi compound with an automated pin transfer instrument (Janus, Perkin Elmer) and incubated for 8 hours. […] Fixation solution was aspirated and 90 μL of washing solution (0.1% Triton X-100 in PBS) was added prior to 10 minute incubation at 4° C. Washing solution was aspirated and cells were incubated at 4° C. for about 1 hour in blocking solution (0.1% Triton X-100+2% BSA in PBS). Washing solution was aspirated, and cells were incubated for about 1 hour at 4° C. in primary antibody for acetylated-tubulin (Sigma T7451) and acetylated-histone (Cell Signaling #9441L) at a 1:1000 dilution in blocking solution. Primary antibody solution was aspirated, and cells were washed three times in 90 μL of washing solution. […] Secondary antibody and nuclear staining solution was aspirated and cells were washed three times in 90 μL of washing solution. After the third wash, 50 μL of PBS was added to each well. Image acquisition was done on a high content imaging microscope (ImageXpress Micro, Molecular Devices), and image analysis (MetaXpress, Molecular Devices) was performed to obtain average acetylated-tubulin and acetylated-histone signal per cell based on treatment. Replicate experimental data from incubations with inhibitor were normalized to DMSO controls.

In the case of `O=C(NO)c1ccc(Cn2c(=O)[nH]c3cc(F)ccc32)cc1` [B3, 4-((5-fluoro-2-oxo-2,3-dihydro-1H-benzo[d]imidazol-1-yl)methyl)N-hydroxybenzamide], on HDAC1, the “HDAC1/HDAC6 in vitro selectivity” value was 2749 and the IC50 was determined as 59.3 nM. Moreover, at HDAC4, the “HDAC4/HDAC6 in vitro selectivity” value came out at 79927, the IC50 came to 1720 nM and the “selectivity toward HDAC6 compared to HDAC4 (in words)” value (from here on “selectivity toward HDAC6”) is “exceptionally high selectivity (Inhibitors with in vitro selectivity values for HDAC6 of at least 30,000 are considered to have exceptionally high selectivity toward HDAC6)”. Besides, the IC50 on HDAC6 worked out at 0.0216 nM. For the same molecule, the EC50 with acetylated histones turned out to be 1480 nM.
With `O=C(NO)c1ccc(Cn2c(=O)[nH]c3cc(Cl)ccc32)cc1` [B4, 4-((5-chloro-2-oxo-2,3-dihydro-1H-benzo[d]imidazol-1-yl)methyl)-N-hydroxybenzamide], on HDAC1, the “HDAC1/HDAC6 in vitro selectivity” value is listed as 209 and the IC50 was 5.29 nM. On HDAC4, the “HDAC4/HDAC6 in vitro selectivity” value is recorded as 25301 and the IC50 stood at 639 nM. The IC50 on HDAC6 came to 0.0253 nM. The EC50 with acetylated histones turned out to be 420 nM.
On to `O=C(NO)c1ccc(Cn2c(=O)[nH]c3cc(Br)ccc32)cc1` [B5, 4-((5-bromo-2-oxo-2,3-dihydro-1H-benzo[d]imidazol-1-yl)methyl)-N-hydroxybenzamide], for which, on HDAC1, the “HDAC1/HDAC6 in vitro selectivity” value was 508 and the IC50 was determined as 10.4 nM. Also, on HDAC4, the “HDAC4/HDAC6 in vitro selectivity” value was found to be 57687, the IC50 came out at 1180 nM and the “selectivity toward HDAC6” value is given as “exceptionally high selectivity (Inhibitors with in vitro selectivity values for HDAC6 of at least 30,000 are considered to have exceptionally high selectivity toward HDAC6)”. Also, at HDAC6, the IC50 was found to be 0.0205 nM. In addition, the EC50 in the test with acetylated histones amounted to 846 nM.
As for `O=C(NO)c1ccc(Cn2c(=O)[nH]c3cc(C(F)(F)F)ccc32)cc1` [B6, N-hydroxy-4-((2-oxo-5-(trifluoromethyl)-2,3-dihydro-1H-benzo[d]imidazol-1-yl)methyl)benzamide], at HDAC1, the “HDAC1/HDAC6 in vitro selectivity” value stood at 1951 and the IC50 was determined as 12.1 nM. Further, at HDAC4, the “HDAC4/HDAC6 in vitro selectivity” value was found to be 229041, the IC50 is 1420 nM and the “selectivity toward HDAC6” value is recorded as “exceptionally high selectivity (Inhibitors with in vitro selectivity values for HDAC6 of at least 30,000 are considered to have exceptionally high selectivity toward HDAC6)”. On HDAC6, the IC50 stood at 0.00621 nM. Further, in the test with acetylated histones (A549 cells, FIG. 11), the “levels of acetylated histone, dose response (in words)” value is listed as “absence of the dose-dependent response”. In the test on acetylated histones, the EC50 is around 629 nM.
For `COc1ccc2c(c1)[nH]c(=O)n2Cc1ccc(C(=O)NO)cc1` [B7, N-hydroxy-4-((5-methoxy-2-oxo-2,3-dihydro-1H-benzo[d]imidazol-1-yl)methyl)benzamide], at HDAC1, the “HDAC1/HDAC6 in vitro selectivity” value came to 1224 and the IC50 was 31.5 nM. Further, on HDAC4, the “HDAC4/HDAC6 in vitro selectivity” value is on record as 60006, the IC50 was 1540 nM and the “selectivity toward HDAC6” value is “exceptionally high selectivity (Inhibitors with in vitro selectivity values for HDAC6 of at least 30,000 are considered to have exceptionally high selectivity toward HDAC6)”. The IC50 at HDAC6 is 0.0257 nM. The EC50 with acetylated histones turned out to be 1540 nM.
As to `O=C(NO)c1ccc(Cn2nnc3ccccc32)cc1` [C1, 4-((1H-benzo[d][1,2,3]triazol-1-yl)methyl)-N-hydroxybenzamide], at HDAC1, the “HDAC1/HDAC6 in vitro selectivity” value was 3996 and the IC50 stood at 63.9 nM. For the same molecule, on HDAC4, the “HDAC4/HDAC6 in vitro selectivity” value is 66860, the IC50 turned out to be 1070 nM and the “selectivity toward HDAC6” value is reported as “exceptionally high selectivity (Inhibitors with in vitro selectivity values for HDAC6 of at least 30,000 are considered to have exceptionally high selectivity toward HDAC6)”. On HDAC6, the IC50 stood at 0.016 nM. In addition, in the test on acetylated histones, the EC50 amounted to 7140 nM.
As for `O=C(NO)c1ccc(Cn2nnc3cc(F)ccc32)cc1` [C3, 4-((5-fluoro-1H-benzo[d][1,2,3]triazol-1-yl)methyl)-N-hydroxybenzamide], at HDAC1, the “HDAC1/HDAC6 in vitro selectivity” value stood at 8300 and the IC50 is 218 nM. On HDAC4, the “HDAC4/HDAC6 in vitro selectivity” value was 81082, the IC50 turned out to be 2130 nM and the “selectivity toward HDAC6” value was “exceptionally high selectivity (Inhibitors with in vitro selectivity values for HDAC6 of at least 30,000 are considered to have exceptionally high selectivity toward HDAC6)”. Further, the IC50 on HDAC6 stood at 0.0263 nM. Besides, the EC50 in the test on acetylated histones is 1500 nM.
On to `O=C(NO)c1ccc(Cn2nnc3cc(Cl)ccc32)cc1` [C4, 4-((5-chloro-1H-benzo[d][1,2,3]triazol-1-yl)methyl)-N-hydroxybenzamide], for which, at HDAC1, the “HDAC1/HDAC6 in vitro selectivity” value was found to be 1712 and the IC50 came to 94.5 nM. For the same molecule, on HDAC4, the “HDAC4/HDAC6 in vitro selectivity” value is on record as 34808, the IC50 turned out to be 1920 nM and the “selectivity toward HDAC6” value is recorded as “exceptionally high selectivity (Inhibitors with in vitro selectivity values for HDAC6 of at least 30,000 are considered to have exceptionally high selectivity toward HDAC6)”. For the same molecule, the IC50 at HDAC6 turned out to be 0.0552 nM. The EC50 in the test with acetylated histones came out at 6040 nM.
Consider `O=C(NO)c1ccc(Cn2nnc3cc(Br)ccc32)cc1` [C5, 4-((5-bromo-1H-benzo[d][1,2,3]triazol-1-yl)methyl)-N-hydroxybenzamide], for which, on HDAC1, the “HDAC1/HDAC6 in vitro selectivity” value is 2113 and the IC50 was found to be 54.5 nM. At HDAC4, the “HDAC4/HDAC6 in vitro selectivity” value is reported as 60319, the IC50 came to 1560 nM and the “selectivity toward HDAC6” value is listed as “exceptionally high selectivity (Inhibitors with in vitro selectivity values for HDAC6 of at least 30,000 are considered to have exceptionally high selectivity toward HDAC6)”. Besides, the IC50 on HDAC6 worked out at 0.0258 nM. Further, in the test on acetylated histones, the EC50 turned out to be 2300 nM.

In general, IC50 refers to the concentration needed to halve the response being measured. A word on the EC50: it is the concentration that produces a half-maximal response.
